# Reference: patent publication US6710017B2, “Compositions and methods for controlling algae in recirculating water systems” (Avecia, Inc., priority 2000, dated 2004)
# Where two headings read alike, the source gives them in different places.
# Experiments:
# mustard algae [1] = experiment: Remedial laboratory study on algae, change in turbidity; details: for Change in Turbidity at active agent (ppm) five days post treatment: 5 ppm: 5 ppm active ingredient; for Change in Turbidity at active agent (ppm) five days post treatment: 5 ppm / Change in Turbidity at active agent (ppm) five days post treatment: 10 ppm: initial absorbance 0.10; for Change in Turbidity at active agent (ppm) five days post treatment: 5 ppm / Change in Turbidity at active agent (ppm) five days post treatment: 10 ppm / comments (Remedial Algae Control) / water turbidity: Table 2; for Change in Turbidity at active agent (ppm) five days post treatment: 10 ppm: 10 ppm active ingredient; for water turbidity: indicating killing of the mustard algae; for Turbidity @ 5 ppm active ingredient (Change in Turbidity at five days post treatment) / Turbidity @ 10 ppm active ingredient (Change in Turbidity at five days post treatment): Table 4
# [2] = Margin of exposure versus NOEL (estimated total daily dose to a child in a swimming pool); details: for Margin of Exposure vs NOEL (Target > 100): herbicides, Table A, ratio of NOEL to estimated daily dose, 10 ppm in pool water, child 22 kg, 3 hours per day; for Margin of Exposure vs NOEL: agricultural fungicides, Table B
# Protocol: The herbicide preferably has a margin of exposure versus no observed effect level (“NOEL”) value of greater than 10, more preferably greater than 50, especially greater than 80, and more especially greater than 99. The margin of exposure versus NOEL is determined by estimating the total daily dose of the herbicide to a child in a swimming pool and determining the ratio of the NOEL to this. The total daily exposure may be estimated as follows. Oral exposure is estimated by assuming that the swimmer is in the water 3 hours per day, and that the swimmer ingests 50 milliliters of pool water per hour of swimming. It is also assumed that the herbicide will be present in the pool water at a concentration of 10 parts per million, equivalent to 10 milligrams per liter of pool water. The daily oral exposure is therefore estimated as the product of the swimming duration, the ingestion rate, and the concentration in the pool water. Dermal exposure is estimated by assuming the swimmer is in the water 3 hours per day, that the total body surface area, 8800 square centimeters, is immersed in the water, and that the herbicide permeates the skin at a rate, expressed in centimeters per hour, predicted by a model for skin permeation based on chemical structure, the Skinperm model, developed by W. F. ten Berge. A short description of the Skinperm model, can be accessed at: http://home.wxs.nl/˜wtberge/, which is incorporated herein by reference. The daily dermal exposure is then estimated as the product of the permeation rate, the concentration of the herbicide in the pool water (expressed in milligrams per cubic centimeter), the swimming duration, and the total body surface area. The total daily exposure is estimated as the sum of the daily oral and daily dermal exposure. The daily dose, expressed in milligrams per kilogram bodyweight per day, is then estimated as the total daily exposure divided by an assumed body weight of 22 kilograms.
# [3] = Protocol: The margin of exposure versus NOEL is determined by estimating the total daily dose of the herbicide to a child in a swimming pool and determining the ratio of the NOEL to this. The total daily exposure may be estimated as follows. Oral exposure is estimated by assuming that the swimmer is in the water 3 hours per day, and that the swimmer ingests 50 milliliters of pool water per hour of swimming. It is also assumed that the herbicide will be present in the pool water at a concentration of 10 parts per million, equivalent to 10 milligrams per liter of pool water. The daily oral exposure is therefore estimated as the product of the swimming duration, the ingestion rate, and the concentration in the pool water. Dermal exposure is estimated by assuming the swimmer is in the water 3 hours per day, that the total body surface area, 8800 square centimeters, is immersed in the water, and that the herbicide permeates the skin at a rate, expressed in centimeters per hour, predicted by a model for skin permeation based on chemical structure, the Skinperm model, developed by W. F. ten Berge. A short description of the Skinperm model, can be accessed at: http://home.wxs.nl/˜wtberge/, which is incorporated herein by reference. The daily dermal exposure is then estimated as the product of the permeation rate, the concentration of the herbicide in the pool water (expressed in milligrams per cubic centimeter), the swimming duration, and the total body surface area. The total daily exposure is estimated as the sum of the daily oral and daily dermal exposure. The daily dose, expressed in milligrams per kilogram bodyweight per day, is then estimated as the total daily exposure divided by an assumed body weight of 22 kilograms.
# The margin of exposure versus RfD is determined by estimating the total daily dose of the herbicide to a child in a swimming pool, as described above, and determining the ratio of the RfD to this (i.e. margin of exposure/RfD).
# mustard algae [4] = experiment: Preventative laboratory study on algae, visual growth score; details: for Score @ ppm active agent: 0: 0 ppm; for Score @ ppm active agent: 0 / Score @ ppm active agent: 10 / Score @ 10 ppm / Score @ ppm active agent: 15 / Score @ 15 ppm active ingredient: visual score 0 to 4, 10 days; for Score @ ppm active agent: 0 / Score @ ppm active agent: 10 / Score @ ppm active agent: 15: 27° C.; for Score @ ppm active agent: 10 / Score @ 10 ppm: 10 ppm; for Score @ 10 ppm / Score @ 15 ppm active ingredient: Table 3; for Score @ ppm active agent: 15 / Score @ 15 ppm active ingredient: 15 ppm; for Comments (Preventive Algae Control): Table 1
# [5] = herbicides, Table A, 10 ppm in pool water, child 22 kg
molecule,measurement,setting,value
"CCC(=O)Nc1ccc(Cl)c(Cl)c1 [Propanil, N-(3,4-dichlorophenyl)propanamide]",Change in Turbidity at active agent (ppm) five days post treatment: 5 ppm,mustard algae [1],−0.02
same,Change in Turbidity at active agent (ppm) five days post treatment: 10 ppm,mustard algae [1],−0.03
same,comments (Remedial Algae Control),mustard algae [1],algicidal activity
same,water turbidity,mustard algae [1],decreased significantly
same,Margin of Exposure vs NOEL (Target > 100),[2],67
same,Margin of Exposure vs. RfD (Target > 1),[3]; [5],0.1
Poly(oxyethylene(dimethylimino)-ethylene(dimethylimino)-ethylene dichloride) [Polyquat],Score @ ppm active agent: 0,mustard algae [4],2
same,Score @ ppm active agent: 10,mustard algae [4],2
same,Score @ 10 ppm,mustard algae [4],2
same,Score @ ppm active agent: 15,mustard algae [4],2
same,Score @ 15 ppm active ingredient,mustard algae [4],2
same,Comments (Preventive Algae Control),mustard algae [4],Bloom noticeable
same,Change in Turbidity at active agent (ppm) five days post treatment: 5 ppm,mustard algae [1],+0.29
same,Turbidity @ 5 ppm active ingredient (Change in Turbidity at five days post treatment),mustard algae [1],+0.29
same,Change in Turbidity at active agent (ppm) five days post treatment: 10 ppm,mustard algae [1],+0.28
same,Turbidity @ 10 ppm active ingredient (Change in Turbidity at five days post treatment),mustard algae [1],+0.28
alkyl dimethyl benzylammonium chloride [ADBAC],Score @ ppm active agent: 0,mustard algae [4],3
same,Score @ ppm active agent: 10,mustard algae [4],3
same,Score @ 10 ppm,mustard algae [4],3
same,Score @ ppm active agent: 15,mustard algae [4],0
same,Score @ 15 ppm active ingredient,mustard algae [4],0
same,Change in Turbidity at active agent (ppm) five days post treatment: 5 ppm,mustard algae [1],+0.13
same,Turbidity @ 5 ppm active ingredient (Change in Turbidity at five days post treatment),mustard algae [1],+0.13
same,Change in Turbidity at active agent (ppm) five days post treatment: 10 ppm,mustard algae [1],+0.03
same,Turbidity @ 10 ppm active ingredient (Change in Turbidity at five days post treatment),mustard algae [1],+0.03
same,control of the mustard algae,mustard algae [1]; at 5× and 10× the EPA allowable dose,no control
"CSc1nc(NC(C)C)nc(NC(C)C)n1 [Prometryn, N,N′-bis(1-methylethyl)-6-(methylthio)-1,3,5-triazine-2,4-diamine]",Margin of Exposure vs NOEL (Target > 100),[2],50
same,Margin of Exposure vs. RfD (Target > 1),"[3]; human, 3 hours per day, 10 ppm",0.1
"CN(C)c1nc(=O)n(C2CCCCC2)c(=O)n1C [Hexazinone, 3-cyclohexyl-6-(dimethylamino)-1-methyl-1,3,5-triazine-2,4(1H,3H)-dione]",Change in Turbidity at active agent (ppm) five days post treatment: 5 ppm,mustard algae [1],−0.03
same,Change in Turbidity at active agent (ppm) five days post treatment: 10 ppm,mustard algae [1],−0.03
same,comments (Remedial Algae Control),mustard algae [1],algicidal activity
same,water turbidity,mustard algae [1],decreased significantly
same,Margin of Exposure vs NOEL (Target > 100),[2],63
same,Margin of Exposure vs. RfD (Target > 1),"[3]; human, 3 hours per day, 10 ppm",0.6
"CCSC(=O)N1CCCCCC1 [Molinate, S-ethyl hexahydro-1H-azepine-1-carbothioate]",Margin of Exposure vs NOEL (Target > 100),[2],3
same,Margin of Exposure vs. RfD (Target > 1),[3]; [5],0.03
"CCNc1nc(NC(C)C)nc(SC)n1 [Ametryn, 2-ethylamino-4-isopropylamino-6-methylthio-s-triazine]",Margin of Exposure vs NOEL (Target > 100),[2],25
same,Margin of Exposure vs. RfD (Target > 1),"[3]; human, 3 hours per day, 10 ppm",0.02
"COc1nc(C)nc(NC(=O)NS(=O)(=O)c2ccccc2Cl)n1 [Chlorsulfuron, 2-chloro-N-[[(4-methoxy-6-methyl-1,3,5-triazin-2-yl)amino]carbonyl]benzenesulfonamide]",Margin of Exposure vs NOEL (Target > 100),[2],67
same,Margin of Exposure vs. RfD (Target > 1),"[3]; human, 3 hours per day, 10 ppm",0.7
"C=CC1(C)OC(=O)N(c2cc(Cl)cc(Cl)c2)C1=O (stereo not shown) [Vinclozolin, 3-(3,5-dichlorophenyl)-5-methyl-5-vinyl-1,3-oxazolidine-2,4-dione]",Margin of Exposure vs NOEL,[2],33
same,Margin of Exposure vs. RfD,"[3]; human, 3 hours per day, 10 ppm",0.3
"Cc1[nH]c(=O)n(C(C)(C)C)c(=O)c1Cl [Terbacil, 3-tert-Butyl-5-chloro-6-methyluracil]",Score @ ppm active agent: 0,mustard algae [4],0
same,Score @ ppm active agent: 10,mustard algae [4],0
same,Score @ ppm active agent: 15,mustard algae [4],0
same,Change in Turbidity at active agent (ppm) five days post treatment: 5 ppm,mustard algae [1],−0.02
same,Change in Turbidity at active agent (ppm) five days post treatment: 10 ppm,mustard algae [1],−0.02
same,comments (Remedial Algae Control),mustard algae [1],algicidal activity
same,water turbidity,mustard algae [1],decreased significantly
same,Margin of Exposure vs NOEL (Target > 100),[2],16
same,Margin of Exposure vs. RfD (Target > 1),[3]; [5],0.17
"CC(C)NC(=O)N1CC(=O)N(c2cc(Cl)cc(Cl)c2)C1=O [Iprodione, 3-(3,5-dichlorophenyl)-N-(1-methylethyl)-2,4-dioxo-1-imidazolidinecarboxamide]",Margin of Exposure vs NOEL,[2],81
same,Margin of Exposure vs. RfD,"[3]; human, 3 hours per day, 10 ppm",0.3
"CCc1cnc(C2=NC(C)(C(C)C)C(=O)N2)c(C(=O)O)c1 (stereo not shown) [Imazethapyr, 2-[4,5-dihydro-4-methyl-4-(1-methylethyl)-5-oxo-1H-imidazol-2-yl]-5ethyl-3-pyridinecarboxylic acid]",Margin of Exposure vs NOEL (Target > 100),[2],3333
same,Margin of Exposure vs. RfD (Target > 1),"[3]; human, 3 hours per day, 10 ppm",3.3
"COC(=O)c1ccccc1S(=O)(=O)NC(=O)Nc1nc(C)nc(OC)n1 [Metsulfuron-methyl, Methyl 2-[[[[(4-methoxy-6-methyl-1,3,5-triazin-2-yl)amino]carbonyl]amino]sulfonyl]benzoate]",Change in Turbidity at active agent (ppm) five days post treatment: 5 ppm,mustard algae [1],+0.09
same,Change in Turbidity at active agent (ppm) five days post treatment: 10 ppm,mustard algae [1],+0.06
same,comments (Remedial Algae Control),mustard algae [1],Algistatic. More
same,Margin of Exposure vs NOEL (Target > 100),[2],333
same,Margin of Exposure vs. RfD (Target > 1),"[3]; human, 3 hours per day, 10 ppm",3.3
CCc1cccc(C)c1N(C(=O)CCl)C(C)COC (stereo not shown) [metolachlor],Score @ ppm active agent: 0,mustard algae [4],1
same,Score @ ppm active agent: 10,mustard algae [4],1
same,Score @ ppm active agent: 15,mustard algae [4],1
same,Comments (Preventive Algae Control),mustard algae [4],very little growth
same,Change in Turbidity at active agent (ppm) five days post treatment: 5 ppm,mustard algae [1],+0.12
same,Change in Turbidity at active agent (ppm) five days post treatment: 10 ppm,mustard algae [1],+0.06
same,comments (Remedial Algae Control),mustard algae [1],Algistatic. More
"COc1ccc(C(=CC(=O)N2CCOCC2)c2ccc(Cl)cc2)cc1OC [Dimethomorph, (E,Z)-4-[3-(4-chlorophenyl)-3-(3,4-dimethoxyphenyl)acryloyl]morpholine]",Margin of Exposure vs NOEL,[2],88
same,Margin of Exposure vs. RfD,"[3]; human, 3 hours per day, 10 ppm",0.8
"CCc1cccc(CC)c1N(COC)C(=O)CCl [Alachlor, 2-chloro-2′,6′-diethyl-N-(methoxymethyl) acetanilide]",Margin of Exposure vs NOEL (Target > 100),[2],13
same,Margin of Exposure vs. RfD (Target > 1),[3]; [5],0.1
"COC(=O)c1ccccc1CS(=O)(=O)NC(=O)Nc1nc(OC)cc(OC)n1 [Bensulfuron ME, Methyl 2-[[[[[(4,6-dimethoxypyrimidin-2-yl)amino]carbonyl]amino]sulfonyl]methyl]-benzoate]",Change in Turbidity at active agent (ppm) five days post treatment: 5 ppm,mustard algae [1],+0.01
same,Change in Turbidity at active agent (ppm) five days post treatment: 10 ppm,mustard algae [1],0.00
same,comments (Remedial Algae Control),mustard algae [1],algicidal activity
same,water turbidity,mustard algae [1],decreased significantly
same,Margin of Exposure vs NOEL (Target > 100),[2],265
same,Margin of Exposure vs. RfD (Target > 1),"[3]; human, 3 hours per day, 10 ppm",2.7
"6-chloro-N-methyl-N′-(1-methylethyl)-1,3,5-triazine-2,4-diamine [Norflurazon]",Margin of Exposure vs NOEL (Target > 100),[2],20
same,Margin of Exposure vs. RfD (Target > 1),[3]; [5],0.3
"Cc1cc(C2CC2)nc(Nc2ccccc2)n1 [Cyprodinil, 4-cyclopropyl-6-methyl-N-phenyl-2-pyrimidinamine]",Margin of Exposure vs NOEL,[2],50
same,Margin of Exposure vs. RfD,"[3]; human, 3 hours per day, 10 ppm",0.5
"CC(C)OC(=O)Nc1cccc(Cl)c1 [Chlopropham, Isopropyl 3-chlorocarbanilate; isopropyl 3-chlorophenylcarbamate]",Margin of Exposure vs NOEL (Target > 100),[2],67
same,Margin of Exposure vs. RfD (Target > 1),"[3]; human, 3 hours per day, 10 ppm",0.7
"CCCC(=NOCC)C1=C(O)CC(CC(C)SCC)CC1=O (stereo not shown) [Sethoxydim, 2-[1-(ethoxyimino)butyl]-5-[2-(ethylthio)propyl]-3-hydroxy-2-cyclohexen-1-one]",Margin of Exposure vs NOEL (Target > 100),[2],119
same,Margin of Exposure vs. RfD (Target > 1),[3]; [5],12
